We go through one molecule from article PMC5841205, “Pharmacological targeting of apelin impairs glioblastoma growth” (Brain, 2017).

For data set [1], the system named is panel of normal human and primary glioblastoma cell lines. Kind of data set: Cell viability (UptiBlue), cell line panel. It is filed as cell-based. Particulars: MM54 2, 20 and 100 μM, 3 days; cardiomyocytes, HaCAT, CaCo2, hCMEC/D3, Jurkat, SH-SY5Y, SVGp12, glioblastoma lines. How it is done:
Cell viability in response to MM54 was tested using the UptiBlue reagent (Interchim), a fluorometric/colorimetric growth indicator based on the detection of metabolic activity. Briefly, cells were seeded at a density of 2 × 10^3 per well, UptiBlue added at a concentration of 10% v/v and cells maintained at 37°C 5% CO2 until analysis. Absorbance was measured at Day 5 following treatment at 570 and 600 nm on a FLUOStar OPTIMA (BMG Labtech) plate reader, and the percentage of cell viability calculated according to the manufacturer’s instructions.
Figure 5 Pharmacological inhibition of APLNR by MM54 impairs the in vitro expansion of temozolomide-resistant GSCs. (A) Cell viability following treatment with DMSO, MM54 (2, 20 and 100 μM) or temozolomide (TMZ, 50 μM) was measured using UptiBlue in different cell types for 3 days. […] (B and C) Cell viability following treatment with DMSO or TMZ (100 μM) was measured using UptiBlue in GSCs #1, #4, #9, and #12 for 3 days. […] (D) GSC#1 viability was assessed following combined treatment with MM54 (0.2–20 μM) and TMZ (constant ratios TMZ:MM54 2.5:1, 5:1, and 10:1) in NS and human brain endothelial cell-conditioned medium (EC-CM) conditions. (E and F) Tumoursphere per field of view (fov) and ALDH activity were assessed in response to MM54 (0.2–100 μM) or TMZ (10–100 μM) treatment at Day 5. […]

A short description of data set [2]: Brain pharmacokinetics after intraperitoneal administration. The format is in vivo, mouse. How it is done:
B. MM54 compound was solubilized in water and administered intraperitoneally (IP) at the dose of 3.6 mg/kg to healthy mice.
Mice (3/group) were sacrificed at 10 min, 30 min, 60 min, 2h, 4h, 6h, 8h and 24h post-injection. Plasma and brains were collected and further processed for LC-MS/MS analysis. B/P index is 0.24. AUC is area under the curve. n.d. stands for ‘not able to be

[3] abbreviates: healthy mice, IP 3.6 mg/kg in water, 3/group, LC-MS/MS.

SMILES strings stand for the structures. Positions of bridges follow the written chain, without caps; N, C: chain ends. Residues, ends and D or L forms follow the SMILES beside them.

On to `CC(C)C[C@@H]1NC(=O)[C@H](CCCNC(=N)N)NC(=O)[C@@H]2CCCN2C(=O)[C@H](CCCNC(=N)N)NC(=O)[C@@H](NC(=O)[C@H](Cc2c[nH]cn2)NC(=O)[C@H](CCCCN)NC(=O)[C@@H]2CSSC[C@H](N)C(=O)N[C@@H](CCCNC(=N)N)C(=O)N3CCC[C@H]3C(=O)N[C@@H](CCCNC(=N)N)C(=O)N[C@@H](CC(C)C)C(=O)N2)CSSC[C@@H](C(=O)O)NC1=O` [MM54, cyclo(1–6)CRPRLC-KH-cyclo(9–14)CRPRLC] (H-CRPRLCKHCRPRLC-OH; disulfide 1-6, 9-14), for which, in data set [1], the “toxicity (viability) in cell line panel” value is “no overtly toxic effects on any of the cell lines tested”. The detection in brain result in data set [2] (healthy animals, intraperitoneal) is “detected in the plasma and the brain”. Also, in data set [2] (setting [3]), the “Cmax (µM), brain” value is 0.14 µM; the “Cmax (µg.ml-1), brain” value was 0.26 µg/mL; the “Time Cmax, brain” value came out at 10 min. Moreover, in data set [2] (mouse, healthy mice, IP 3.6 mg/kg in water, brain vs plasma, read-out: B/P index), the Kp is 0.24.
